Reference: US10023543B2 (CELGENE QUANTICEL RESEARCH, INC., priority 2014, dated 2018)

test system: THP-1 (AML) cells; assay: LSD1 CD11b cellular assay (flow cytometry); assay type: cell-based; details: Homo sapiens, THP-1, 96 h; CD11b expressing cells, 4 days; read-out: THP-1 IC50

| IC50 | Structure (SMILES) |
| --- | --- |
| < 100 nM | Cn1c(N2CCC(N)CC2)nc(-c2ccc(C#N)cc2)c(-c2ccc(OCCO)cc2)c1=O [Example 97, 4-[2-(4-aminopiperidin-1-yl)-5-[4-(2-hydroxyethoxy)phenyl]-1-methyl-6-oxopyrimidin-4-yl]benzonitrile] |
| < 100 nM | CNc1ccc(-c2c(-c3ccc(C#N)c(F)c3)nc(N3CCC(N)CC3)n(C)c2=O)cc1F [Example 91, 4-[2-(4-aminopiperidin-1-yl)-5-[3-fluoro-4-(methylamino)phenyl]-1-methyl-6-oxopyrimidin-4-yl]-2-fluorobenzonitrile] |
| < 100 nM | COCc1ccc(-c2c(-c3ccc(C#N)c(F)c3)nc(N3CCC(N)CC3)n(C)c2=O)cc1 [Example 107, 4-[2-(4-aminopiperidin-1-yl)-5-[4-(methoxymethyl)phenyl]-1-methyl-6-oxopyrimidin-4-yl]-2-fluorobenzonitrile] |
| < 100 nM | CNc1ccc(-c2c(-c3ccc(C#N)c(F)c3)nc(N3CCC(N)CC3)n(C)c2=O)cc1 [Example 90, 4-[2-(4-aminopiperidin-1-yl)-1-methyl-5-[4-(methylamino)phenyl]-6-oxopyrimidin-4-yl]-2-fluorobenzonitrile] |
| < 100 nM | COc1ccc(-c2c(-c3ccc(C#N)c(F)c3)nc(N3CCC(N(C)C)CC3)n(C)c2=O)cn1 [Example 92, 4-[2-[4-(dimethylamino)piperidin-1-yl]-5-(6-methoxypyridin-3-yl)-1-methyl-6-oxopyrimidin-4-yl]-2-fluorobenzonitrile] |
| < 100 nM | Cn1c(N2CCC(N)CC2)nc(-c2ccc(C#N)c(F)c2)c(-c2ccc(CCO)cc2)c1=O [Example 99, 4-[2-(4-aminopiperidin-1-yl)-5-[4-(2-hydroxyethyl)phenyl]-1-methyl-6-oxopyrimidin-4-yl]-2-fluorobenzonitrile] |
| < 100 nM | CCOc1ncc(-c2c(-c3ccc(C#N)c(F)c3)nc(N3CCC(N)CC3)n(C)c2=O)cc1F [Example 93, 4-[2-(4-aminopiperidin-1-yl)-5-(6-ethoxy-5-fluoropyridin-3-yl)-1-methyl-6-oxopyrimidin-4-yl]-2-fluorobenzonitrile] |
| 100 to 1000 nM | C#Cc1c(-c2ccc(C#N)c(F)c2)nc(N2CCC(N)CC2)n(C)c1=O [Example 110] |
| < 100 nM | CCOc1ccc(-c2c(-c3ccc(C#N)c(F)c3)nc(N3CCC(N)CC3)n(C)c2=O)cc1 [Example 95, 4-[2-(4-aminopiperidin-1-yl)-5-(4-ethoxyphenyl)-1-methyl-6-oxopyrimidin-4-yl]-2-fluorobenzonitrile] |
| < 100 nM | Cn1c(N2CCC(N)CC2)nc(-c2ccc(C#N)c(F)c2)c(-c2ccc(S(C)(=O)=O)cc2)c1=O [Example 105, 4-[2-(4-aminopiperidin-1-yl)-1-methyl-5-(4-methylsulfonylphenyl)-6-oxopyrimidin-4-yl]-2-fluorobenzonitrile] |
| < 100 nM | CNC1CCN(c2nc(-c3ccc(C#N)c(F)c3)c(-c3ccc4c(cnn4C)c3)c(=O)n2C)CC1 [Example 87, 2-fluoro-4-[1-methyl-2-[4-(methylamino)piperidin-1-yl]-5-(1-methylindazol-5-yl)-6-oxopyrimidin-4-yl]benzonitrile] |

Continued, compound first:

| Structure (SMILES) | IC50 |
| --- | --- |
| COc1ccc(-c2c(-c3ccc(C#N)c(F)c3)nc(NC[C@H]3CCNC3)n(C)c2=O)cc1 [Example 51, 2-fluoro-4-{5-(4-methoxy-phenyl)-1-methyl-6-oxo-2-[(3S)-(pyrrolidin-3-ylmethyl)-amino]-1,6-dihydro-pyrimidin-4-yl}-benzonitrile] | 100 to 1000 nM |
| CN(C)C1CCN(c2nc(-c3ccc(C#N)c(F)c3)c(-c3ccc4cn(C)nc4c3)c(=O)n2C)CC1 [Example 80, 4-[2-(4-dimethylamino-piperidin-1-yl)-1-methyl-5-(2-methyl-2H-indazol-6-yl)-6-oxo-1,6-dihydro-pyrimidin-4-yl]-2-fluoro-benzonitrile] | < 100 nM |
| Cn1c(N2CCC(N)CC2)nc(-c2ccc(C#N)cc2)c(-c2ccc3c(cnn3C)c2)c1=O [Example 33, 4-[2-(4-aminopiperidyl)-1-methyl-5-(1-methyl(1H-indazol-5-yl))-6-oxohydropyrimidin-4-yl]benzenecarbonitrile] | < 100 nM |
| Cn1c(N2CCC(N)CC2)nc(-c2ccc(C#N)c(F)c2)c(-c2ccc3[nH]ccc3c2)c1=O [Example 73, 4-[2-(4-amino-piperidin-1-yl)-5-(1H-indol-5-yl)-1-methyl-6-oxo-1,6-dihydro-pyrimidin-4-yl]-2-fluoro-benzonitrile] | < 100 nM |
| COc1ccc(-c2c(-c3ccc(C#N)c(F)c3)nc(NC3CCNCC3)n(C)c2=O)cc1 [Example 53, 2-fluoro-4-[5-(4-methoxy-phenyl)-1-methyl-6-oxo-2-(piperidin-4-ylamino)-1,6-dihydro-pyrimidin-4-yl]-benzonitrile] | 100 to 1000 nM |
| COc1ccc(-c2c(-c3ccc(C#N)cc3)nc(NC[C@H]3CCNC3)n(C)c2=O)cc1F [Example 44, 4-{5-(3-fluoro-4-methoxy-phenyl)-1-methyl-6-oxo-2-[(3S)-(pyrrolidin-3-ylmethyl)-amino]-1,6-dihydro-pyrimidin-4-yl}-benzonitrile] | 100 to 1000 nM |
| COc1ccc(-c2c(-c3ccc(C#N)c(F)c3)nc(N3CCCNCC3)n(C)c2=O)cn1 [Example 61, 4-[2-[1,4]diazepan-1-yl-5-(6-methoxy-pyridin-3-yl)-1-methyl-6-oxo-1,6-dihydro-pyrimidin-4-yl]-2-fluoro-benzonitrile] | < 100 nM |
| CNC1CCN(c2nc(-c3ccc(C#N)c(F)c3)c(-c3ccc(OC)nc3)c(=O)n2C)CC1 [Example 58, 2-fluoro-4-[5-(6-methoxy-pyridin-3-yl)-1-methyl-2-(4-methylamino-piperidin-1-yl)-6-oxo-1,6-dihydro-pyrimidin-4-yl]-benzonitrile] | < 100 nM |
| CNC1CCN(c2nc(-c3ccc(C#N)c(F)c3)c(-c3ccc(OC)c(F)c3)c(=O)n2C)CC1 [Example 12, 2-fluoro-4-[5-(3-fluoro-4-methoxy-phenyl)-1-methyl-2-(4-methylamino-piperidin-1-yl)-6-oxo-1,6-dihydro-pyrimidin-4-yl]-benzonitrile] | < 100 nM |
| COc1ccc(-c2c(-c3ccc(C#N)c(F)c3)nc(N3CCC[C@@H](N)C3)n(C)c2=O)cc1F [Example 25, 4-[2-((3R)-3-aminopiperidyl)-5-(3-fluoro-4-methoxyphenyl)-1-methyl-6-oxohydropyrimidin-4-yl]-2-fluorobenzenecarbonitrile] | < 100 nM |
| CN(C)C1CCN(c2nc(-c3ccc(C#N)c(F)c3)c(-c3ccc4cn[nH]c4c3)c(=O)n2C)CC1 [Example 84, 4-[2-(4-dimethylamino-piperidin-1-yl)-5-(2H-indazol-6-yl)-1-methyl-6-oxo-1,6-dihydro-pyrimidin-4-yl]-2-fluoro-benzonitrile] | < 100 nM |
| CN(C)c1ncc(-c2c(-c3ccc(C#N)c(F)c3)nc(N3CCC(N(C)C)CC3)n(C)c2=O)cn1 [Example 81, 4-[2′-dimethylamino-2-(4-dimethylamino-piperidin-1-yl)-1-methyl-6-oxo-1,6-dihydro-[5,5′]bipyrimidinyl-4-yl]-2-fluoro-benzonitrile] | 100 to 1000 nM |
| CN(C)c1ncc(-c2c(-c3ccc(C#N)c(F)c3)nc(N3CCC(N)CC3)n(C)c2=O)cn1 [Example 49, 4-[2-(4-amino-piperidin-1-yl)-2′-dimethylamino-1-methyl-6-oxo-1,6-dihydro-[5,5′]bipyrimidinyl-4-yl]-2-fluoro-benzonitrile] | < 100 nM |
| CNC1CCN(c2nc(-c3ccc(C#N)c(F)c3)c(-c3ccc(N(C)C)nc3)c(=O)n2C)CC1 [Example 83, 4-[5-(6-dimethylamino-pyridin-3-yl)-1-methyl-2-(4-methylamino-piperidin-1-yl)-6-oxo-1,6-dihydro-pyrimidin-4-yl]-2-fluoro-benzonitrile] | < 100 nM |
| CNC(=O)c1ccc(-c2c(-c3ccc(C#N)cc3)nc(N3CCC(N)CC3)n(C)c2=O)cc1F [Example 40, {4-[2-(4-aminopiperidyl)-6-(4-cyanophenyl)-3-methyl-4-oxo(3-hydropyrimidin-5-yl)]-2-fluorophenyl}-N-methylcarboxamide] | 100 to 1000 nM |
| Cn1c(N2CCC(N)CC2)nc(-c2ccc(C#N)cc2)c(-c2ccc(C(N)=O)c(F)c2)c1=O [Example 41, 4-[2-(4-aminopiperidyl)-6-(4-cyanophenyl)-3-methyl-4-oxo(3-hydropyrimidin-5-yl)]-2-fluorobenzamide] | 100 to 1000 nM |
| CN(C)c1ccc(-c2c(-c3ccc(C#N)c(F)c3)nc(N3CCC(N)CC3)n(C)c2=O)cc1 [Example 59, 4-[2-(4-amino-piperidin-1-yl)-5-(4-dimethylamino-phenyl)-1-methyl-6-oxo-1,6-dihydro-pyrimidin-4-yl]-2-fluoro-benzonitrile] | < 100 nM |
| Cn1c(N2CCC(N)CC2)nc(-c2ccc(C#N)c(F)c2)c(-c2ccc3cc[nH]c3c2)c1=O [Example 75, 4-[2-(4-amino-piperidin-1-yl)-5-(1H-indol-6-yl)-1-methyl-6-oxo-1,6-dihydro-pyrimidin-4-yl]-2-fluoro-benzonitrile] | < 100 nM |
| Cn1c(N2CCC(N)CC2)nc(-c2ccc(C#N)c(F)c2)c(-c2ccc3c(ccn3C)c2)c1=O [Example 74, 4-[2-(4-amino-piperidin-1-yl)-1-methyl-5-(1-methyl-1H-indol-5-yl)-6-oxo-1,6-dihydro-pyrimidin-4-yl]-2-fluoro-benzonitrile] | < 100 nM |
| COc1ccc(-c2c(-c3ccc(C#N)c(F)c3)nc(N3CC[C@@H](N)C3)n(C)c2=O)cc1F [Example 27, 4-[2-((3R)-3-aminopyrrolidinyl)-5-(3-fluoro-4-methoxyphenyl)-1-methyl-6-oxohydropyrimidin-4-yl]-2-fluorobenzenecarbonitrile] | < 100 nM |
| CN(C)C1CCN(c2nc(-c3ccc(C#N)c(F)c3)c(-c3ccc4c(cnn4C)c3)c(=O)n2C)CC1 [Example 72, 4-[2-(4-dimethylamino-piperidin-1-yl)-1-methyl-5-(1-methyl-1H-indazol-5-yl)-6-oxo-1,6-dihydro-pyrimidin-4-yl]-2-fluoro-benzonitrile] | < 100 nM |
| Cn1c(N2CCC(N)CC2)nc(-c2ccc(C#N)c(F)c2)c(-c2ccc3cn[nH]c3c2)c1=O [Example 77, 4-[2-(4-amino-piperidin-1-yl)-5-(1H-indazol-6-yl)-1-methyl-6-oxo-1,6-dihydro-pyrimidin-4-yl]-2-fluoro-benzonitrile] | < 100 nM |
